Assay results: US11591323B2, “Muscarinic agonists as non-steroidal and non-opioid analgesics and methods of use thereof” (Barry University, priority 2019, dated 2023)

Target: T1, M2 muscarinic receptor (Homo sapiens, UniProt P08172)
T1 sequence (P08172 1-466): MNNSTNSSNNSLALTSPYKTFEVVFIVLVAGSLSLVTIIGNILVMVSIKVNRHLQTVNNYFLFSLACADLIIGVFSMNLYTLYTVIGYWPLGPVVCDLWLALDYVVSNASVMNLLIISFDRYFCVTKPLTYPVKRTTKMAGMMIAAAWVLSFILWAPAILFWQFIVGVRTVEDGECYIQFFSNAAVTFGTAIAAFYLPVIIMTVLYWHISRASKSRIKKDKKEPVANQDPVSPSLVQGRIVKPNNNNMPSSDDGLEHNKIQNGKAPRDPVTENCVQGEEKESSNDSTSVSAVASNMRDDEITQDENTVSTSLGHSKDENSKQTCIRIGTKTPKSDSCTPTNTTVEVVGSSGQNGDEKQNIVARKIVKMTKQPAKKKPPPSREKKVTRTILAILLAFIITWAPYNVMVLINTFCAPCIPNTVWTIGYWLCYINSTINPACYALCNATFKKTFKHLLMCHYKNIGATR
Test: accumulation of cAMP at PTX-treated CHO cells expressing M2
Type: cell-based
Set-up: host or cells: CHO cells, stably transfected
Details: for change in accumulation of cAMP: PTX-treated M2 CHO cells, forskolin-stimulated and basal, in words
Procedure: To exclude the possibility that activation of the non-preferential Gs pathway was obscured by activation of the preferential Gi/o pathway, accumulation of cAMP was measured in CHO cells expressing M2 or M4 receptors where Gi/o G-proteins were inactivated by pertussis toxin (PTX) treatment (FIG. 4).
Cell culture and membrane preparation: Chinese hamster ovary (CHO) cells stably transfected with the genes of individual human variants of muscarinic receptors were purchased from Missouri S&T cDNA Resource Center (Rolla, Mo., USA). Fresh primary cell culture of smooth muscle cells (SMC) from rat aorta prepared as previously described was kindly provided by Dr. Lucie Bačáková. Primary culture of SMCs was grown to confluency in 75 cm^2 flasks in Dulbecco's modified Eagle's medium supplemented with 10% fetal bovine serum. Up to 6-times, 2 million of cells were sub-cultured. […] Cells were grown to confluency in 75 cm^2 flasks in Dulbecco's modified Eagle's medium supplemented with 10% fetal bovine serum and 2 million of cells were subcultured in 100 mm Petri dishes. Medium was supplemented with 5 mM butyrate for the last 24 hours of cultivation to increase receptor expression. When needed, cells were cultivated with pertussis toxin at a final concentration of 25 ng/ml for the 24 hours. Cells were detached by mild trypsinization on day 5 after subculture. Detached cells were washed twice in 50 ml of phosphate-buffered saline and 3 min centrifugation at 250×g. […]
Measurements of the production of cAMP and inositol phosphates: Levels of second messengers cAMP and inositol phosphates were determined in radiochemical chromatography assays as described previously. […] Samples were applied to alumina columns (1.5 g of alumina per column), washed with 2 ml ammonium acetate (pH=7.0) and eluted from columns with 4 ml ammonium acetate and measured by liquid scintillation spectrometry. […] After separation of water and organic phases, 0.6 ml of water phase was applied to Dowex columns (1.5 g of Dowex per column), washed by 20 ml of 60 mM ammonium formate/5 mM sodium borate buffer and eluted from columns with 4 ml of 1M ammonium formate/0.1 formic acid buffer and measured by liquid scintillation spectrometry.
To exclude the possibility that activation of the non-preferential […] pathway was obscured by activation of the preferential Gi/o pathway, accumulation of cAMP was measured in CHO cells expressing M2 or M4 receptors where Gi/o G-proteins were inactivated by pertussis toxin (PTX) treatment (FIG. 11). […]

Row | SMILES | change in accumulation of cAMP | EC50 in PTX treated cells versus non-treated cells (M2)
1 | C1=CCN(Cc2cccs2)CC1.Cl [Compound 6A, 1-[(thiophen-2-yl)methyl]-1,2,3,6-tetrahydropyridin-1-ium chloride] | did not change cAMP levels | 
2 | C[N+]1(Cc2cccs2)CC=CCC1.[I-] (stereo not shown) [Compound 7A, 1-methyl-1-[(thiophen-2-yl)methyl]-1,2,3,6-tetrahydropyridin-1-ium iodide] | did not change cAMP levels | 
3 | C[N+](C)(C)CCOC(N)=O [carbachol, reference compound] | about two-fold increase | the same
